Where two headings read alike, the source gives them in different places.
Columns and labels:
BCLXL WT = BCLXL WT (Homo sapiens (Human), UniProt Q07817); assay: TR-FRET competitive binding assay, BCLXL WT; details: for Ki: BCLXL WT, Ki determined from IC50, read-out: TR_FRET EKI BclxL; for TR_FRET EKI BCLxL/WT selectivty ratio: ratio Ki BCLxL / Ki BCL2 WT; for TR_FRET EKI BCLxL/WT selectivty: ratio of Ki BCLxL to BCL2 WT
Experimental: (§1) The relative binding potency of each compound was determined in a competitive binding assay using time resolved-fluorescence resonance energy transfer (TR-FRET). The method utilised a fluorescein labelled peptide derived from PUMA (5Flu-Ahx-[…]-NH2 wherein Ahx means 6-hexanoic acid monomer and the amino acid sequence is referred to as SEQ ID:01) which binds to a terbium labelled BCL2 or BCLXL protein. The degree of binding or corresponding compound inhibition can be quantified by the TR-FRET signal between the terbium donor and fluorescein acceptor.
(§2) The human BCL2_wild-type (also named BCL2_wt), BCL2_G101V mutant and BCLXL_wild-type were E. coli expressed as a N-terminal Halo-fusion proteins and singly labelled with Terbium on the Halo protein to afford the following amino acid sequences:
(§3) wherein the BCL2(1-207) sequence corresponds to UniProtKB® primary accession number P10415 and the BCLXL(2-196) sequence corresponds to UniProtKB® primary accession number Q07817-1.
(§4) The assay was performed in a 40 μL volume in white 384-standard well plates (Corning #3574). An 11-point serial dilution of each compound was prepared in DMSO and transferred directly to plate followed by addition of fluorescein labelled peptide and lastly protein. Final assay conditions were 0.5 nM BCL2_wt, BCL2_G101V, BCL2_D103Y, BCL2_F104I, BCL2_D111A or BCLXL_wt, 2 or 20 nM fluorescein labelled peptide, 50 mM Hepes pH 7.5, 150 mM NaCl, 0.5 mM TCEP (Tris(2-carboxyethyl)phosphine), 0.05% Tween 20, 5% DMSO. The mixture was incubated for 2 hours at 23° C.
(§5) TR-FRET measurements were performed on a Biotek Synergy Neo plate reader. TR-FRET was measured by excitation of the Terbium-donor at 340 nm and subsequent (delay time 100 μs) measurement of terbium and fluorescein emission at 495 nm and 520 nm, respectively, over a collection time of 300 μs. The TR-FRET signal was calculated as the emission-ratio at 520 nm over 495 nm.
(§6) The TR-FRET ratio readout for test compounds was normalized against 0% inhibition controls wells and 100% inhibition control wells. Test compound potency (IC50) was estimated by nonlinear regression using the sigmoidal dose-response (variable slope) using Xlfit 4 (IDBS, Guildford, Surrey, UK, model 205). Were the IC50 could not be determined the % inhibition at the highest tested concentration is given.
(§7) y=(A+((B−A)/(1+((C/x)^D))))
(§8) where y is the normalized TR-TRET ratio measurement for a given concentration of test compound, x is the concentration of test compound, A is the estimated efficacy (% inhibition) at infinite compound dilution, and B is the maximal efficacy (% inhibition). C is the IC50 value and D is the Hill slope coefficient.
(§9) The K1 values were determined from the IC50 values according to Cer et al, Nucleic Acids Res, 2009, July 1; 37 (WebServer issue): W441-W445.

BCL2 D103Y = BCL2 D103Y (Homo sapiens, UniProt P10415, D103Y); assay: TR-FRET competitive binding assay, BCL2 D103Y; details: Ki determined from IC50, read-out: TR_FRET EKI_Bcl2 D103Y
Experimental: as §1, §2, §3, §4, §5, §6, §7, §8, §9

BCL2 G101V [1] = target: BCL2 G101V (Homo sapiens, UniProt P10415, G101V); assay: TR-FRET competitive binding assay, BCL2 G101V; details: BCL2 G101V; Ki determined from IC50; read-out: TR_FRET EKI_Bcl2 G101V
Experimental: as §1, §2, §3, §4, §5, §6, §7, §8, §9

BCL2 G101V [2] = assay: TR-FRET competitive binding assay, BCL2 G101V; set-up: species or system human; details: for TR_FRET EKI G101V/WT selectivty ratio: ratio Ki BCL2 G101V / Ki BCL2 WT; for TR_FRET EKI G101V/WT selectivty: ratio of Ki BCL2 G101V to BCL2 WT
Experimental: as §1, §2, §3, §4, §5, §6, §7, §8, §9

KMS-12-PE Bcl-2 WT = assay: In vitro cytotoxicity CellTiter-Glo 48 h, KMS-12-PE Bcl-2 WT; type: cell-based; details: Homo sapiens, KMS-12-PE, C50 = concentration needed to reach 50% of the cellular viability
Experimental: KMS-12-PE (ACC 606) were purchased from the Leibniz-Institute DSMZ (Braunschweig, Germany) and were grown at 37° C. in a humidified atmosphere with […] in media recommended by the suppliers. Lentiviral particles containing Bcl-2 wild type (also named “Bcl2 WT”) and Bcl-2 mutated on G101V (also named “Bcl2 G101V”) were cloned into pcLV-CMV-DEST-IRES-TagRFP. Lentiviral particles (1×106) were mixed with Polybrene at 8 µg/ml and transduced by spinoculation for 1 h at 32° C. and incubated overnight. After 8 days, TagRFP positive-cells were sorted by FACS. BCL2 expression was monitored by immunoblotting using anti-Flag and anti-BCL2 antibodies.
Cellular viability was monitored with the cell viability assay (CellTiter-Glo®) on KMS-12-PE WT and G101V cell lines. The CellTiter-Glo® (CTG) Luminescent Cell Viability Assay (from Promega) is a homogeneous method to determine the number of viable cells in culture based on quantitation of the ATP present, which signals the presence of metabolically active cells.
Dose response of compounds are performed with 10 mM stock solutions (DMSO), 11-points curve, in a 384-well compound plate. The assay plate is prepared by stamping 40 nL from compound dilution plate of all different concentrations (e.g. 10 mM to have final […] assay test) into a cell culture microplate, using Echo acoustic liquid handling (Labcyte, Beckman). 40 μl of cell solution is added and cells are incubated with compounds for 48 h at 37° C., 5% CO2. CTG was added to the cells (according to the manufacturer instructions) and luminescence intensity was recorded using the Pherastar plate reader (BMG).
This assay provides in vitro cellular potency of the tested Bcl-2 inhibitors, measuring the C50, defined as the concentration needed to reach 50% of the cellular viability.

BCL2 WT = BCL2 WT (Homo sapiens (Human), UniProt P10415); assay: TR-FRET competitive binding assay, BCL2 WT
Experimental: as §1, §2, §3, §4, §5, §6, §7, §8, §9

[3] = Ki determined from IC50, read-out: TR_FRET EKI_Bcl2 WT
[4] = Ki determined from IC50, read-out: TR_FRET EKI_Bcl2

Chain of BCLXL WT (Q07817 other isoform, or with tags, fused parts or gaps): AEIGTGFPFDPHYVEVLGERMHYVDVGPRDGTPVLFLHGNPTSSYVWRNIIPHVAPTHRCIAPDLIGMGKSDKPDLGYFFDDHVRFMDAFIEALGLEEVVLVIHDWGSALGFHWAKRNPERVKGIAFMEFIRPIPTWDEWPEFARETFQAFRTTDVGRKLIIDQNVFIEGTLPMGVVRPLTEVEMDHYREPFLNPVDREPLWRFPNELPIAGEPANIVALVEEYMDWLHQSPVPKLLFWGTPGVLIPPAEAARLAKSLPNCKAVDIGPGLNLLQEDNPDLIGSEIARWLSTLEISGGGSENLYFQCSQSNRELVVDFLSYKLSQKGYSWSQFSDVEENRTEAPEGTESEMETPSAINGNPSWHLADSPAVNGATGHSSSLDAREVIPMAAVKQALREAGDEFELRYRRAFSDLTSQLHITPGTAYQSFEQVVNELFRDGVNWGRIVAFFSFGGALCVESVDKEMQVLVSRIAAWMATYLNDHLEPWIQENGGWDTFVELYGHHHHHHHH

SMILES	Ki (BCLXL WT)	TR_FRET EKI BCLxL/WT selectivty ratio (BCLXL WT)	Ki (BCL2 D103Y)	Ki (BCL2 G101V [1])	TR_FRET EKI G101V/WT selectivty ratio (BCL2 G101V [2])	Ki (BCL2 WT; [3])	TR_FRET EKI BCLxL/WT selectivty (BCLXL WT)	TR_FRET EKI G101V/WT selectivty (BCL2 G101V [2])	Ki (BCL2 WT; [4])	IC50 (KMS-12-PE Bcl-2 WT)
Cc1c(N(C(=O)c2cc(-c3cc4c(cc3C(=O)N3Cc5ccccc5C[C@H]3CN3CCCCC3)CN(C(=O)C(F)(F)c3ccc(OCCN5CCOCC5)cc3)CC4)n(C)c2C)c2ccc(O)cc2)cc(C#N)n1C [Example 178, N-(5-cyano-1,2-dimethyl-pyrrol-3-yl)-5-[2-[2,2-difluoro-2-[4-(2-morpholinoethoxy)phenyl]acetyl]-7-[(3S)-3-(1-piperidylmethyl)-3,4-dihydro-1H-isoquinoline-2-carbonyl]-3,4-dihydro-1H-isoquinolin-6-yl]-N-(4-hydroxyphenyl)-1,2-dimethyl-pyrrole-3-carboxamide]	11.9 nM	137.8	0.16 nM	1.3 nM	15.3	0.09 nM	–	–	–	0.0109 µM
Cc1c(C(=O)N(c2ccc(O)cc2)c2cc(C#N)n(C(F)F)c2C)cc(-c2cc3c(cc2C(=O)N2Cc4ccccc4C[C@H]2CN2CC4(CCC4)C2)CN(C(=O)Cc2ccc(OCCC4CCOCC4)cc2)CC3)n1C [Example 180, 5-[7-[(3S)-3-(2-azaspiro[3.3]heptan-2-ylmethyl)-3,4-dihydro-1H-isoquinoline-2-carbonyl]-2-[2-[4-(2-tetrahydropyran-4-ylethoxy)phenyl]acetyl]-3,4-dihydro-1H-isoquinolin-6-yl]-N-[5-cyano-1-(difluoromethyl)-2-methyl-pyrrol-3-yl]-N-(4-hydroxyphenyl)-1,2-dimethyl-pyrrole-3-carboxamide]	17.2 nM	252.5	0.15 nM	0.3 nM	4.5	0.07 nM	–	–	–	0.0078 µM
COc1ccc(N(C(=O)c2cc(-c3cc4c(cc3C(=O)N3Cc5ccccc5C[C@H]3CN3CC5(CCC5)C3)CN(C(=O)Cc3ccc(OCCN5CCOCC5)cc3F)CC4)n(C)c2C)c2ccc(O)cc2)cc1C#N [Example 181, 5-[7-[(3S)-3-(2-azaspiro[3.3]heptan-2-ylmethyl)-3,4-dihydro-1H-isoquinoline-2-carbonyl]-2-[2-[2-fluoro-4-(2-morpholinoethoxy)phenyl]acetyl]-3,4-dihydro-1H-isoquinolin-6-yl]-N-(3-cyano-4-methoxy-phenyl)-N-(4-hydroxyphenyl)-1,2-dimethyl-pyrrole-3-carboxamide]	9 nM	248.7	0.09 nM	0.4 nM	9.9	0.04 nM	–	–	–	0.0194 µM
COc1ccc(N(C(=O)c2cc(-c3cc4c(cc3C(=O)N3Cc5ccccc5C[C@H]3C)CN(C(=O)Cc3ccc(OCCN5CCOCC5)cc3)CC4)n(C)c2C)c2ccccc2)cc1C#N [Example 182, N-(3-cyano-4-methoxy-phenyl)-1,2-dimethyl-5-[7-[(3R)-3-methyl-3,4-dihydro-1H-isoquinoline-2-carbonyl]-2-[2-[4-(2-morpholinoethoxy)phenyl]acetyl]-3,4-dihydro-1H-isoquinolin-6-yl]-N-phenyl-pyrrole-3-carboxamide]	11.8 nM	107.1	0.3 nM	1.5 nM	13.3	0.11 nM	–	–	–	0.0097 µM

Further lines, with some results ahead:

Ki (BCLXL WT)	TR_FRET EKI BCLxL/WT selectivty ratio (BCLXL WT)	Ki (BCL2 D103Y)	Ki (BCL2 G101V [1])	TR_FRET EKI G101V/WT selectivty ratio (BCL2 G101V [2])	Ki (BCL2 WT; [3])	TR_FRET EKI BCLxL/WT selectivty (BCLXL WT)	TR_FRET EKI G101V/WT selectivty (BCL2 G101V [2])	Ki (BCL2 WT; [4])	SMILES	IC50 (KMS-12-PE Bcl-2 WT)
4.3 nM	24.6	0.26 nM	1.6 nM	9.3	0.18 nM	–	–	–	Cc1cc(OCCN2CCOCC2)c(F)cc1CC(=O)N1CCc2cc(-c3cc(C(=O)N(c4ccc(O)cc4)c4cc(C#N)n(C)c4C)c(C)n3C)c(C(=O)N3Cc4ccccc4C[C@H]3CN3CCCCC3)cc2C1 [Example 223, N-(5-cyano-1,2-dimethyl-pyrrol-3-yl)-5-[2-[2-[5-fluoro-2-methyl-4-(2-morpholinoethoxy)phenyl]acetyl]-7-[(3S)-3-(1-piperidylmethyl)-3,4-dihydro-1H-isoquinoline-2-carbonyl]-3,4-dihydro-1H-isoquinolin-6-yl]-N-(4-hydroxyphenyl)-1,2-dimethyl-pyrrole-3-carboxamide]	–
1.3 nM	–	0.18 nM	0.8 nM	–	–	17.7	10.5	0.073 nM	Cc1cc(OCCN2CCOCC2)c(F)cc1CC(=O)N1CCc2cc(-c3cc(C(=O)N(c4ccc(O)cc4)c4cc(C#N)n(C)c4C)c(C)n3C)c(C(=O)N3Cc4ccccc4C[C@H]3C)cc2C1 [Example 224, N-(5-cyano-1,2-dimethyl-pyrrol-3-yl)-5-[2-[2-[5-fluoro-2-methyl-4-(2-morpholinoethoxy)phenyl]acetyl]-7-[(3R)-3-methyl-3,4-dihydro-1H-isoquinoline-2-carbonyl]-3,4-dihydro-1H-isoquinolin-6-yl]-N-(4-hydroxyphenyl)-1,2-dimethyl-pyrrole-3-carboxamide]	–
23.6 nM	–	0.14 nM	25.6 nM	–	–	214.3	233.0	0.11 nM	Cc1cc(OCCN2CCOCC2)c(F)cc1CC(=O)N1CCc2cc(-c3cc(C(=O)N(c4ccccc4)c4cnn(C)c4)c(C)n3C)c(C(=O)N3Cc4ccccc4C[C@H]3C)cc2C1 [Example 225, 5-[2-[2-[5-fluoro-2-methyl-4-(2-morpholinoethoxy)phenyl]acetyl]-7-[(3R)-3-methyl-3,4-dihydro-1H-isoquinoline-2-carbonyl]-3,4-dihydro-1H-isoquinolin-6-yl]-1,2-dimethyl-N-(1-methylpyrazol-4-yl)-N-phenyl-pyrrole-3-carboxamide]	–

From patent US20250179047A1, “5-[7-(3,4-DIHYDRO-1H-ISOQUINOLINE-2-CARBONYL)-1,2,3,4 TETRAHYDROISOQUINOLIN-6-YL]-1H-PYRROLE-3-CARBOXAMIDE DERIVATIVES, PHARMACEUTICAL COMPOSITIONS CONTAINING THEM AND THEIR USES AS PRO-APOPTOTIC AGENTS” (LES LABORATOIRES SERVIER, priority 2022, published 2025)
